Here are results for six compounds from article PMC5613062 (Investigational New Drugs, 2017).

Where two headings read alike, the source gives them in different places. Marks after values point to notes of the source that are not given here.

On the set-up of series [1]: method as in product label. As to conditions: ref product label, cited from earlier work.
A short description of series [2]: Pharmacokinetics alone and in combination, selumetinib + erlotinib arm.
Procedure: (§1) PK parameters were derived using non-compartmental analysis. Cmax and tmax were determined by visual inspection of the plasma concentration-time profiles. AUC(0–12) was calculated by the linear trapezoidal rule. Where more than one maximum occurred, the reported value was assigned to the first occurrence.
On the set-up of series [3]: method as in earlier work. As to conditions: twice-daily oral dosing in SBE-CD, monkeys; no notable gastrointestinal tract or renal pathology; ref IB; cited from earlier work.
The conditions of series [4]: cited from earlier work.
The conditions of series [5]: ref Study D1532C00005, cited from earlier work.
Series [6] deals with Calu-6 human non-small cell lung cancer xenograft. Also noted: method as in earlier work. As to conditions: AZD6244 3 mg/kg BD; AZD2171 […] QD; ref IB; cited from earlier work.
Series [7] has as its system SW620 human colorectal cancer xenograft. Also noted: method as in earlier work. The conditions noted are these: ref IB, cited from earlier work.
Series [8] can be described thus: Pharmacokinetics alone and in combination, selumetinib + temsirolimus arm. The class given is in vivo, human. The conditions noted are these: human, plasma, iv; for AUC(0-t) / AUC(0–12) / Cmax: geometric mean (% CV); for AUC(0-t): read-out: AUC(0–8); for AUC(0–12): read-out: AUC(0–12); for Cmax: read-out: Cmax; for tmax: median (range), read-out: tmax.
Procedure: as §1
Series [9] concerns Lovo colorectal cancer xenograft. Also noted: method as in earlier work. As to conditions: rapamycin experiment, usual monotherapy schedules, doses not given; ref IB; cited from earlier work.
The mark [10] stands for this setting: NSCLC patients, single-agent erlotinib 150 mg.
Where [11] appears, read: geometric mean, QD cohorts, dosed alone, selumetinib 150 mg cohort (N = 13), erlotinib 100 mg QD.
Setting [12] is: dosed alone, selumetinib 50 mg cohort (N = 25), temsirolimus 25 mg IV.
[13] abbreviates: dosed alone, selumetinib 75 mg cohort (N = 6), temsirolimus 25 mg IV.
The mark [14] stands for this setting: dosed in combination, selumetinib 50 mg BID (N = 22) + temsirolimus 25 mg IV.
Where [15] appears, read: dosed in combination, selumetinib 75 mg BID (N = 5) + temsirolimus 25 mg IV.

As for `C#Cc1cccc(Nc2ncnc3cc(OCCOC)c(OCCOC)cc23)c1` [Erlotinib, reference compound], the “Grade 3/4 diarrhea” value in [1] (setting [10]) is on record as 6%. In addition, in series [1] (setting [10]), the “Grade 3/4 rash” value is 9%. Moreover, the “median time to onset of diarrhea” value in [1] (setting [10]) is given as 12 days. In addition, in series [1] (setting [10]), the “median time to onset of rash” value is listed as 8 days. Besides, the “patients needing dose reduction for diarrhea” value in series [1] (setting [10]) is 1%. Moreover, the “patients needing dose reduction for rash” value in series [1] (setting [10]) was “Six”. Further, the “study discontinuation due to diarrhea” value in series [1] (setting [10]) is listed as 1%. In addition, in series [1] (setting [10]), the “study discontinuation due to rash” value is on record as 1%. Further, in [1] (range 5 days to more than 9 months), the “median time to start of ILD-like symptoms after initiating therapy” value is reported as 39 days. Moreover, the Cmax was 1681 (27.13) [13] ng/mL in series [2] (geometric mean (% CV), dosed alone, selumetinib 50 mg cohort (N = 14), erlotinib 100 mg QD); 1725 (30.11) ng/mL in [2] (geometric mean (% CV), dosed in combination, selumetinib 50 mg BID (N = 12) + erlotinib 100 mg QD); 1739 (39.86) ng/mL in series [2] (geometric mean (% CV), dosed in combination, selumetinib 75 mg BID (N = 6) + erlotinib 100 mg QD); 1180 ng/mL in series [2] (geometric mean, QD cohorts, dosed alone, selumetinib 100 mg cohort (N = 6), erlotinib 100 mg QD); 1980^c ng/mL in series [2] (setting [11]); 1468^d ng/mL in series [2] (geometric mean, QD cohorts, in combination, selumetinib 50 mg (N = 6) + erlotinib 100 mg QD). Moreover, the Cmax in series [2] (human, plasma, oral, Cmax, geometric mean (% CV), dosed alone, selumetinib 75 mg cohort (N = 6), erlotinib 100 mg QD) was 1420 ng/mL; in [2] (human, plasma, oral, Cmax, geometric mean, QD cohorts, dosed alone, selumetinib 50 mg cohort (N = 7), erlotinib 100 mg QD) it was 1620 ng/mL; in series [2] (human, plasma, oral, Cmax, geometric mean, QD cohorts, in combination, selumetinib 100 mg (N = 6) + erlotinib 100 mg QD), 1430 ng/mL; in series [2] (human, plasma, oral, Cmax, geometric mean, QD cohorts, in combination, selumetinib 150 mg (N = 12) + erlotinib 100 mg QD), 2030 ng/mL. Further, in series [2] (setting [11]), the “AUC(0–8)” value is recorded as 12,710^c ng•h/mL. The tmax in series [2] (human, plasma, oral) is 1.5 h; in series [2] (human, plasma, oral, 100 mg), 1.5 h; in series [2] (median (range), QD cohorts, dosed alone, selumetinib 150 mg cohort (N = 13), erlotinib 100 mg QD), 2.00 (1.00–6.00)^c h; in series [2] (median (range), QD cohorts, in combination, selumetinib 50 mg (N = 6) + erlotinib 100 mg QD), 4.00 (1.00–8.00)^d h; in series [2] (median (range), dosed alone, selumetinib 75 mg cohort (N = 6), erlotinib 100 mg QD) it was 3.0 (2.0–6.0) h. Also, the AUC(0-t) was found to be 7100 ng·h/mL in [2] (human, plasma, oral, 100 mg, AUC(0–8), geometric mean, QD cohorts, dosed alone, selumetinib 100 mg cohort (N = 6), erlotinib 100 mg QD); 10300 ng·h/mL in series [2] (human, plasma, oral, 100 mg, AUC(0–12), geometric mean, QD cohorts, dosed alone, selumetinib 100 mg cohort (N = 6), erlotinib 100 mg QD); 10100 ng·h/mL in series [2] (human, plasma, oral, AUC(0–8), geometric mean (% CV), dosed alone, selumetinib 50 mg cohort (N = 14), erlotinib 100 mg QD); 9590 ng·h/mL in [2] (human, plasma, oral, AUC(0–8), geometric mean (% CV), dosed alone, selumetinib 75 mg cohort (N = 6), erlotinib 100 mg QD); 10400 ng·h/mL in [2] (human, plasma, oral, AUC(0–8), geometric mean (% CV), dosed in combination, selumetinib 50 mg BID (N = 12) + erlotinib 100 mg QD); 10400 ng·h/mL in [2] (human, plasma, oral, AUC(0–8), geometric mean (% CV), dosed in combination, selumetinib 75 mg BID (N = 6) + erlotinib 100 mg QD). In addition, the AUC(0-t) in series [2] (human, plasma, oral, AUC(0–8), geometric mean, QD cohorts, dosed alone, selumetinib 50 mg cohort (N = 7), erlotinib 100 mg QD) is 9620 ng·h/mL; in series [2] (human, plasma, oral, AUC(0–8), geometric mean, QD cohorts, in combination, selumetinib 50 mg (N = 6) + erlotinib 100 mg QD), 8600 ng·h/mL; in series [2] (human, plasma, oral, AUC(0–8), geometric mean, QD cohorts, in combination, selumetinib 100 mg (N = 6) + erlotinib 100 mg QD), 8500 ng·h/mL; in [2] (human, plasma, oral, AUC(0–8), geometric mean, QD cohorts, in combination, selumetinib 150 mg (N = 12) + erlotinib 100 mg QD), 13000 ng·h/mL; in series [2] (human, plasma, oral, AUC(0–12), geometric mean (% CV), dosed alone, selumetinib 50 mg cohort (N = 14), erlotinib 100 mg QD), 14500 ng·h/mL; in series [2] (human, plasma, oral, AUC(0–12), geometric mean (% CV), dosed alone, selumetinib 75 mg cohort (N = 6), erlotinib 100 mg QD), 13800 ng·h/mL. The AUC(0-t) in [2] (human, plasma, oral, AUC(0–12), geometric mean (% CV), dosed in combination, selumetinib 50 mg BID (N = 12) + erlotinib 100 mg QD) is 14700 ng·h/mL; in series [2] (human, plasma, oral, AUC(0–12), geometric mean (% CV), dosed in combination, selumetinib 75 mg BID (N = 6) + erlotinib 100 mg QD) it was 14700 ng·h/mL; in series [2] (human, plasma, oral, AUC(0–12), geometric mean, QD cohorts, dosed alone, selumetinib 50 mg cohort (N = 7), erlotinib 100 mg QD), 14000 ng·h/mL; in series [2] (human, plasma, oral, AUC(0–12), geometric mean, QD cohorts, dosed alone, selumetinib 150 mg cohort (N = 13), erlotinib 100 mg QD), 18300 ng·h/mL; in [2] (human, plasma, oral, AUC(0–12), geometric mean, QD cohorts, in combination, selumetinib 100 mg (N = 6) + erlotinib 100 mg QD), 12000 ng·h/mL; in series [2] (human, plasma, oral, AUC(0–12), geometric mean, QD cohorts, in combination, selumetinib 150 mg (N = 12) + erlotinib 100 mg QD) it was 18600 ng·h/mL. In series [2] (selumetinib + erlotinib arm), the “PK parameters when administered alone and in combination” value is “similar”.
In the case of `Cn1cnc2c(F)c(Nc3ccc(Br)cc3Cl)c(C(=O)NOCCO)cc21` [AZD6244 Hyd-Sulfate], the toxicity findings entry in [3] is given as “fluid and/or red colored feces”. In series [4] (male mice dosed 8–15 weeks at the high dose level, ref IB), the “toxicity findings, 6-month study” value is on record as “dilation of the corpus spongiosum”. For the same compound, in [4] (mice dosed for up to one month, ref IB), the tissue mineralization entry is “multiple tissues (cornea, kidney, liver, myocardium, skeletal muscle, glandular stomach)”. Further, the “toxicity findings at non-tolerated dose levels” value in [4] (mouse, in vivo, po) was “gastrointestinal tract toxicity and hematopoietic atrophy”. In addition, the “DLT in the first 22 days of dosing” value in series [5] (75 mg BD cohort, one DLT) is listed as “CTCAE Grade 3 fatigue”. Further, the “DLTs in the first 22 days of dosing” value in series [5] (100mg BD cohort, two DLTs) was “pleural effusion and rash (both CTC AE Grade 3)”. Further, the maximum tolerated dose in series [5] (capsule formulation) is listed as 75 mg BD.
Consider `COc1cc2c(Oc3ccc4[nH]c(C)cc4c3F)ncnc2cc1OCCCN1CCCC1` [AZD2171, reference compound], for which the “Tumor growth inhibition as a % of control” value in series [6] is on record as 49.6 % of control.
As to `Cn1nnc2c(C(N)=O)ncn2c1=O` [Temozolamide], the “Tumor growth inhibition as a % of control” value in [7] (temozolamide experiment, usual monotherapy schedules, doses not given) was 15 % of control.
Regarding `CO[C@H]1C[C@@H]2CC[C@@H](C)[C@@](O)(O2)C(=O)C(=O)N2CCCC[C@H]2C(=O)O[C@H]([C@H](C)C[C@@H]2CC[C@@H](O)[C@H](OC)C2)CC(=O)[C@H](C)/C=C(\C)[C@@H](O)[C@@H](OC)C(=O)[C@H](C)C[C@H](C)/C=C/C=C/C=C/1C` [Sirolimus], in series [8] (setting [12]), the AUC(0-t) was found to be 341 ng·h/mL, the AUC(0–12) turned out to be 514 ng·h/mL, the Cmax was found to be 58.5 ng/mL and the tmax came out at 1.5 h. For the same compound, in series [8] (setting [13]), the AUC(0-t) worked out at 266 ng·h/mL, the AUC(0–12) turned out to be 382 ng·h/mL, the Cmax came out at 49.5 ng/mL and the tmax stood at 2 h. In addition, in [8] (setting [14]), the AUC(0-t) worked out at 394 ng·h/mL, the AUC(0–12) was 584 ng·h/mL, the Cmax came out at 67 ng/mL and the tmax turned out to be 1.5 h. For the same compound, in series [8] (setting [15]), the AUC(0-t) is 292 ng·h/mL, the AUC(0–12) is 360 ng·h/mL, the Cmax was 51.2 ng/mL and the tmax was determined as 2 h. Moreover, the “Tumor growth inhibition as a % of control” value in series [9] was 38 % of control.
Consider `CCc1c2c(nc3ccc(OC(=O)N4CCC(N5CCCCC5)CC4)cc13)-c1cc3c(c(=O)n1C2)COC(=O)[C@]3(O)CC` [Irinotecan], for which the “Tumor growth inhibition as a % of control” value in series [7] (AZD6244 25 mg/kg BD, irinotecan 25 mg/kg once weekly, docetaxel 15 mg/kg once weekly) is given as 67 % of control.
